From the supplement of paper PMC10307832

How the values were obtained:
Assay in all cases: relative viability (nuclei count vs DMSO), 5 days (fraction); higher = more cells survive
[1] = test system: LCLC-103H
Procedure, shortened: (§1)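 Lung cancer cell lines were pin-tool dosed in 1536-well plates on the day after seeding, with either a lone drug or a fixed anchor-drug dose plus five library-drug doses (not always all listed) in √10 steps. Nuclei were counted on 4× images after 5 days. Relative viability is the ratio of treated-well to vehicle-well nuclei counts, with each value a median of duplicate plates.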

[2] = test system: HCC-366
Procedure, shortened: as §1

[3] = test system: EPLC-272H
Procedure, shortened: as §1

[4] = test system: LU99A
Procedure, shortened: as §1

[5] = test system: NCI-H2085
Procedure, shortened: as §1

[6] = test system: NCI-H2126
Procedure, shortened: as §1

[7] = test system: RERF-LC-KJ
Procedure, shortened: as §1

[8] = test system: LXF-289
Procedure, shortened: as §1

[9] = test system: HCC-827
Procedure, shortened: as §1

[10] = test system: NCI-H1666
Procedure, shortened: as §1

[11] = test system: HCC-78
Procedure, shortened: as §1

[12] = test system: HCC-44
Procedure, shortened: as §1

[13] = test system: NCI-H23
Procedure, shortened: as §1

[14] = test system: ChaGo-K-1
Procedure, shortened: as §1

[15] = test system: EMC-BAC-2
Procedure, shortened: as §1

[16] = test system: SW 900
Procedure, shortened: as §1

[17] = test system: NCI-H2405
Procedure, shortened: as §1

[18] = test system: LOU-NH91
Procedure, shortened: as §1

[19] = test system: LK-2
Procedure, shortened: as §1

[20] = test system: NCI-H3122
Procedure, shortened: as §1

[21] = test system: NCI-H1975
Procedure, shortened: as §1

[22] = test system: SW 1573
Procedure, shortened: as §1

[23] = test system: SK-LU-1
Procedure, shortened: as §1

C[C@@H]1CN(CC(=O)Nc2ccc3c(c2)Cc2cccc(-c4cc(=O)cc(N5CCOCC5)o4)c2S3)C[C@H](C)O1 + NC(=O)Nc1cc(-c2cccc(F)c2)sc1C(=O)N[C@H]1CCCNC1 [AZD7762] (partner 0.2 µM)
relative viability ([1]; first compound 0.04 µM): 0.798 | relative viability ([1]; first compound 0.1265 µM): 0.755 | relative viability ([1]; first compound 0.4 µM): 0.761 | relative viability ([1]; first compound 4 µM): 0.631 | relative viability ([2]; first compound 0.04 µM): 0.247 | relative viability ([2]; first compound 0.1265 µM): 0.253 | relative viability ([2]; first compound 0.4 µM): 0.163 | relative viability ([2]; first compound 4 µM): 0.184 | relative viability ([3]; first compound 0.04 µM): 0.237 | relative viability ([3]; first compound 0.1265 µM): 0.348 | relative viability ([3]; first compound 0.4 µM): 0.226 | relative viability ([3]; first compound 4 µM): 0.321 | relative viability ([4]; first compound 0.04 µM): 0.334 | relative viability ([4]; first compound 0.1265 µM): 0.472 | relative viability ([4]; first compound 0.4 µM): 0.465 | relative viability ([4]; first compound 4 µM): 0.363 | relative viability ([5]; first compound 0.04 µM): 0.959 | relative viability ([5]; first compound 0.1265 µM): 1.06 | relative viability ([5]; first compound 0.4 µM): 0.997 | relative viability ([5]; first compound 4 µM): 0.796 | relative viability ([6]; first compound 0.04 µM): 0.91 | relative viability ([6]; first compound 0.1265 µM): 1.02 | relative viability ([6]; first compound 0.4 µM): 0.964 | relative viability ([6]; first compound 4 µM): 1.02 | relative viability ([7]; first compound 0.04 µM): 0.941 | relative viability ([7]; first compound 0.1265 µM): 0.955 | relative viability ([7]; first compound 4 µM): 0.929 | relative viability ([8]; first compound 0.04 µM): 1.05 | relative viability ([8]; first compound 0.1265 µM): 1.12 | relative viability ([8]; first compound 0.4 µM): 1.19 | relative viability ([8]; first compound 4 µM): 1.04 | relative viability ([9]; first compound 0.04 µM): 0.205 | relative viability ([9]; first compound 0.1265 µM): 0.188 | relative viability ([9]; first compound 0.4 µM): 0.201 | relative viability ([9]; first compound 4 µM): 0.161 | relative viability ([10]; first compound 0.04 µM): 0.891 | relative viability ([10]; first compound 0.1265 µM): 0.891 | relative viability ([10]; first compound 0.4 µM): 0.941 | relative viability ([10]; first compound 4 µM): 0.765 | relative viability ([11]; first compound 0.04 µM): 0.502 | relative viability ([11]; first compound 0.1265 µM): 0.642 | relative viability ([11]; first compound 0.4 µM): 0.479 | relative viability ([11]; first compound 4 µM): 0.66 | relative viability ([12]; first compound 0.04 µM): 0.945 | relative viability ([12]; first compound 0.1265 µM): 1.01 | relative viability ([12]; first compound 0.4 µM): 1 | relative viability ([12]; first compound 4 µM): 0.913 | relative viability ([13]; first compound 0.04 µM): 0.238 | relative viability ([13]; first compound 0.1265 µM): 0.22 | relative viability ([13]; first compound 0.4 µM): 0.226 | relative viability ([13]; first compound 4 µM): 0.18 | relative viability ([14]; first compound 0.04 µM): 0.836 | relative viability ([14]; first compound 0.1265 µM): 0.855 | relative viability ([14]; first compound 0.4 µM): 0.847 | relative viability ([14]; first compound 4 µM): 0.799 | relative viability ([15]; first compound 0.04 µM): 1.1 | relative viability ([15]; first compound 0.1265 µM): 1.15 | relative viability ([15]; first compound 0.4 µM): 1.08 | relative viability ([15]; first compound 4 µM): 1.24 | relative viability ([16]; first compound 0.04 µM): 0.629 | relative viability ([16]; first compound 0.1265 µM): 0.669 | relative viability ([16]; first compound 0.4 µM): 0.506 | relative viability ([16]; first compound 4 µM): 0.281 | relative viability ([17]; first compound 0.04 µM): 0.703 | relative viability ([17]; first compound 0.1265 µM): 0.795 | relative viability ([17]; first compound 0.4 µM): 0.792 | relative viability ([17]; first compound 4 µM): 0.676 | relative viability ([18]; first compound 0.04 µM): 0.639 | relative viability ([18]; first compound 0.1265 µM): 0.775 | relative viability ([18]; first compound 0.4 µM): 0.65 | relative viability ([18]; first compound 4 µM): 0.706 | relative viability ([19]; first compound 0.04 µM): 0.331 | relative viability ([19]; first compound 0.1265 µM): 0.363 | relative viability ([19]; first compound 0.4 µM): 0.293 | relative viability ([19]; first compound 4 µM): 0.432 | relative viability ([20]; first compound 0.04 µM): 1.01 | relative viability ([20]; first compound 0.1265 µM): 0.922 | relative viability ([20]; first compound 0.4 µM): 1.05 | relative viability ([20]; first compound 4 µM): 0.733 | relative viability ([21]; first compound 0.04 µM): 0.729 | relative viability ([21]; first compound 0.1265 µM): 0.608 | relative viability ([21]; first compound 0.4 µM): 0.624 | relative viability ([21]; first compound 4 µM): 0.585

CC(C)Oc1cc(Nc2nc(N[C@@H](C)c3ccc(F)cn3)ncc2Cl)n[nH]1 [AZ23] + CC1(C)CCC(c2ccc(Cl)cc2)=C(CN2CCN(c3ccc(C(=O)NS(=O)(=O)c4ccc(N[C@H](CCN5CCOCC5)CSc5ccccc5)c(S(=O)(=O)C(F)(F)F)c4)cc3)CC2)C1 [Navitoclax] (partner 0.5 µM)
relative viability ([2]; first compound 0.01 µM): 1.3 | relative viability ([2]; first compound 0.03162 µM): 0.998 | relative viability ([2]; first compound 0.3162 µM): 0.883 | relative viability ([3]; first compound 0.01 µM): 1.3 | relative viability ([3]; first compound 0.03162 µM): 1.16 | relative viability ([4]; first compound 0.01 µM): 0.758 | relative viability ([4]; first compound 0.03162 µM): 0.82 | relative viability ([4]; first compound 0.3162 µM): 0.701 | relative viability ([5]; first compound 0.01 µM): 1.31 | relative viability ([5]; first compound 0.03162 µM): 1.27 | relative viability ([5]; first compound 0.3162 µM): 1.11 | relative viability ([6]; first compound 0.01 µM): 0.835 | relative viability ([6]; first compound 0.03162 µM): 0.924 | relative viability ([6]; first compound 0.3162 µM): 0.774 | relative viability ([22]; first compound 0.01 µM): 0.991 | relative viability ([22]; first compound 0.03162 µM): 0.952 | relative viability ([22]; first compound 0.3162 µM): 0.833 | relative viability ([7]; first compound 0.01 µM): 0.719 | relative viability ([7]; first compound 0.03162 µM): 1.15 | relative viability ([7]; first compound 0.3162 µM): 0.879 | relative viability ([8]; first compound 0.01 µM): 1.08 | relative viability ([8]; first compound 0.03162 µM): 0.951 | relative viability ([8]; first compound 0.3162 µM): 0.888 | relative viability ([9]; first compound 0.01 µM): 1 | relative viability ([9]; first compound 0.03162 µM): 1.04 | relative viability ([9]; first compound 0.3162 µM): 0.991 | relative viability ([10]; first compound 0.01 µM): 0.79 | relative viability ([10]; first compound 0.03162 µM): 0.827 | relative viability ([10]; first compound 0.3162 µM): 1 | relative viability ([11]; first compound 0.01 µM): 0.617 | relative viability ([11]; first compound 0.03162 µM): 0.662 | relative viability ([11]; first compound 0.3162 µM): 0.488 | relative viability ([12]; first compound 0.01 µM): 1.31 | relative viability ([12]; first compound 0.03162 µM): 1 | relative viability ([12]; first compound 0.3162 µM): 0.927 | relative viability ([13]; first compound 0.03162 µM): 0.981 | relative viability ([13]; first compound 0.3162 µM): 0.69 | relative viability ([14]; first compound 0.01 µM): 0.782 | relative viability ([14]; first compound 0.03162 µM): 1.23 | relative viability ([14]; first compound 0.3162 µM): 0.949 | relative viability ([15]; first compound 0.01 µM): 1.59 | relative viability ([15]; first compound 0.03162 µM): 1.25 | relative viability ([15]; first compound 0.3162 µM): 1.19 | relative viability ([17]; first compound 0.01 µM): 0.8 | relative viability ([17]; first compound 0.03162 µM): 0.915 | relative viability ([17]; first compound 0.3162 µM): 0.781 | relative viability ([18]; first compound 0.01 µM): 0.619 | relative viability ([18]; first compound 0.03162 µM): 0.744 | relative viability ([18]; first compound 0.3162 µM): 0.746 | relative viability ([23]; first compound 0.01 µM): 0.457 | relative viability ([23]; first compound 0.03162 µM): 1.38 | relative viability ([23]; first compound 0.3162 µM): 0.858 | relative viability ([19]; first compound 0.01 µM): 0.653 | relative viability ([19]; first compound 0.03162 µM): 0.915 | relative viability ([19]; first compound 0.3162 µM): 0.909 | relative viability ([20]; first compound 0.01 µM): 1.11 | relative viability ([20]; first compound 0.03162 µM): 1.02 | relative viability ([20]; first compound 0.3162 µM): 1.08 | relative viability ([21]; first compound 0.01 µM): 1.24 | relative viability ([21]; first compound 0.03162 µM): 1.41 | relative viability ([21]; first compound 0.3162 µM): 1.2
